Consider seven compounds from US20050020613A1, “Sustained release opioid formulations and method of use” (priority 2002, published 2005).

The format of this experiment is in vivo.
Setting [1] is: dose equianalgesic to a 15 mg dose of hydrocodone.

Read-outs that look alike come from different tables or passages of the source.

On to `COc1ccc2c3c1O[C@H]1[C@@H](O)C=C[C@H]4[C@@H](C2)N(C)CC[C@@]341` [Codeine], for which, under setting [1], the “Equianalgesic Doses of Opioids: Calculated Dose” value is on record as 90.0 mg. On the same count and under the same terms, the result for `COc1ccc2c3c1OC1C(=O)CC[C@H]4[C@@H](C2)N(C)CC[C@]314` (stereo partly shown) [Hydrocodone, 4,5-epoxy-3-methoxy-17-methylmorphinan-6-one] reads 15.0 mg. Take `CN1CC[C@]23CCCC[C@H]2[C@H]1Cc1ccc(O)cc13` [Levorphanol]: the “Equianalgesic Doses of Opioids: Calculated Dose” value under setting [1] was 1.8 mg. Still for that read-out and setting: the result for `CCC(=O)C(CC(C)N(C)C)(c1ccccc1)c1ccccc1` (stereo not shown) [Methadone] reads 9.0 mg. In the case of `CN1CC[C@]23c4c5ccc(O)c4O[C@H]2[C@@H](O)C=C[C@H]3[C@H]1C5` [Morphine], where the note is “in vivo”, the “Equianalgesic Doses of Opioids: Calculated Dose” value is on record as 27.0 mg.

Consider `COc1ccc2c3c1OC1C(=O)CC[C@@]4(O)[C@@H](C2)N(C)CC[C@]314` (stereo partly shown) [Oxycodone, 4,5-epoxy-14-hydroxy-3-methoxy-17-methylmorphinan-6-one], for which the “Equianalgesic Doses of Opioids: Calculated Dose” value under setting [1] is on record as 13.5 mg. For the compound Meperidine, the “Equianalgesic Doses of Opioids: Calculated Dose” value under setting [1] is 135.0 mg.
